Measurements taken from patent US5440016A, “Peptides of the formula (KFmoc) ZZZ and their uses” (priority 1993, dated 1995).
Square brackets hold non-standard residues; d marks the D form. Peptide text beside a SMILES is read from it.

The compounds below were run against T1, trypsin (from bovine pancreas) (Bos taurus, UniProt P00760) (assay: Trypsin inhibition assay). Conditions: trypsin concentration of 193 nM; substrate N-alpha-benzoyl-DL-arginine-p-nitroanilide; read-out: IC50, trypsin inhibiting activity.
T1 construct: trypsin (from bovine pancreas, 8,600 units/mg solid); from tissue; host or cells: bovine pancreas
T1 sequence (P00760 24-246): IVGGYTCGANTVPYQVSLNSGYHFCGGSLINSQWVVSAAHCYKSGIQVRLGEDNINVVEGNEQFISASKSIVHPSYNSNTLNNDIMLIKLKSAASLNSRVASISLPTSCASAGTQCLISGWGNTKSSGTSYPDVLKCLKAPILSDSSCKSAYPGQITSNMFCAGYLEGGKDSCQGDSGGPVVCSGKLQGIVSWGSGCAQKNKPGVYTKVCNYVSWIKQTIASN
Type: biochemical
Experimental: The assay was performed in a 96-well assay plate, 15 μl trypsin (from bovine pancreas, 8,600 units/mg solid) solution (0.05 mg/ml 0.02 M HCl), 50 μl peptide solution (1 to 3 mM in water), and 100 μl 0.1 M Tris-buffer containing 25 mM CaCl2 (pH 7.8) were mixed in the wells of the assay plate. After incubation for 30 minutes, 100 μl substrate solution (N^α -benzoyl-DL-arginine-p-nitroanilide, 2.3 mM in water) was added. After 30 minutes, absorbances were read at 405 nm using a Titertek multichannel photometer, and expressed as a percentage of the control (well without peptide). The values obtained with serial dilutions of the peptide solutions were used to determine the IC50 values (concentration neccessary for 50% inhibition).

| Structure (SMILES) | IC50 [µM] |
| --- | --- |
| CC(=O)N[C@H](CCCNC(=N)N)C(=O)N[C@H](Cc1ccc(O)cc1)C(=O)N[C@H](CCCNC(=N)N)C(=O)N1CCC[C@@H]1C(=O)N[C@H](Cc1c[nH]c2ccccc12)C(=O)N[C@H](CS)C(N)=O [Ac-ryrpwc-NH2] (Ac-[dR][dY][dR][dP][dW][dC]-NH2) | 135 |
| CC(=O)N[C@H](CCCNC(=N)N)C(=O)N[C@H](Cc1ccc(O)cc1)C(=O)N[C@H](CCCNC(=N)N)C(=O)N1CCC[C@@H]1C(=O)N[C@H](Cc1c[nH]c2ccccc12)C(=O)N1CCC[C@@H]1C(N)=O [Ac-ryrpwp-NH2] (Ac-[dR][dY][dR][dP][dW][dP]-NH2) | 62 |
| CC(=O)N[C@H](CCCNC(=N)N)C(=O)N[C@H](Cc1ccc(O)cc1)C(=O)N[C@H](CCCNC(=N)N)C(=O)N1CCC[C@@H]1C(=O)N[C@H](Cc1c[nH]c2ccccc12)C(=O)N[C@@H](C(N)=O)[C@H](C)O [Ac-ryrpwt-NH2] (Ac-[dR][dY][dR][dP][dW][dT]-NH2) | 142 |
| CC(=O)N[C@H](CCCNC(=N)N)C(=O)N[C@H](Cc1ccc(O)cc1)C(=O)N[C@H](CCCNC(=N)N)C(=O)N1CCC[C@@H]1C(=O)N[C@H](Cc1c[nH]c2ccccc12)C(=O)N[C@@H](C(N)=O)C(C)C [Ac-ryrpwv-NH2] (Ac-[dR][dY][dR][dP][dW][dV]-NH2) | 131 |
| CC(=O)N[C@H](CCCNC(=N)N)C(=O)N[C@H](Cc1ccc(O)cc1)C(=O)N[C@H](CCCNC(=N)N)C(=O)N1CCC[C@@H]1C(=O)N[C@H](Cc1c[nH]c2ccccc12)C(=O)N[C@H](Cc1c[nH]c2ccccc12)C(N)=O [Ac-ryrpww-NH2] (Ac-[dR][dY][dR][dP][dW][dW]-NH2) | 125 |
